For one test, the target named is T1, JAK3 (Homo sapiens, UniProt P52333).
T1 construct: purchased Invitrogen
T1 sequence (P52333 1-1124): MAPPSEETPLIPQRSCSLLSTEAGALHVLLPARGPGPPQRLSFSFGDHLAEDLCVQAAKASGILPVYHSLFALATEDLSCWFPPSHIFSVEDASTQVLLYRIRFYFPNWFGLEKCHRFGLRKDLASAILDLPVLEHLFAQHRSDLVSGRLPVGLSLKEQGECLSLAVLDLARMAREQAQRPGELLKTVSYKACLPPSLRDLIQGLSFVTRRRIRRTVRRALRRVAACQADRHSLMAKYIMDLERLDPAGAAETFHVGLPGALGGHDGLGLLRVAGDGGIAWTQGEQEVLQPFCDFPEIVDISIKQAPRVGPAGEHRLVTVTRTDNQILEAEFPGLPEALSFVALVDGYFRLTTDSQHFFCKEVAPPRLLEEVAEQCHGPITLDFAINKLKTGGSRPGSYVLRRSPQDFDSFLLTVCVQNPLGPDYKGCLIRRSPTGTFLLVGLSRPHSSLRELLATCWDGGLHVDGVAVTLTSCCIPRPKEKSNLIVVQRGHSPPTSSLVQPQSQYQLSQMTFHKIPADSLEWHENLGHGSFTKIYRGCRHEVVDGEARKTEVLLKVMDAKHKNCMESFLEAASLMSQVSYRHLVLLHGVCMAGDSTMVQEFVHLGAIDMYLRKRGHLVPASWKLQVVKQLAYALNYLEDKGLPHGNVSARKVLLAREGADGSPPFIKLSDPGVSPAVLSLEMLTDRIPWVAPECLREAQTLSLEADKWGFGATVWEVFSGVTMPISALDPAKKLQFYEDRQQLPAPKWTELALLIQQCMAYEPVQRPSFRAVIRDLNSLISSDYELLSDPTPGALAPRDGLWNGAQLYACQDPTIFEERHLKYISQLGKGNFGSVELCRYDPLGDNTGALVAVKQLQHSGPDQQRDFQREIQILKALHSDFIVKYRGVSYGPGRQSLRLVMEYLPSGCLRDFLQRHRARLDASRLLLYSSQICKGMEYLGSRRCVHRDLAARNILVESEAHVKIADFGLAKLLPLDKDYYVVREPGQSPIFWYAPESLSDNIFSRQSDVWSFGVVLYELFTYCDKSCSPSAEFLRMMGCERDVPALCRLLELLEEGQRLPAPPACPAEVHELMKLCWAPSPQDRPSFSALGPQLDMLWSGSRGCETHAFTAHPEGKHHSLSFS
Briefly: z-lyte kinase assay, JAK3. The class given is biochemical. The protocol:
(§1) The inhibiting activities of the inventive compounds obtained in Examples 1 to 237 against EGFR WT and EGFR L858R/T790M kinase were determined using z-lyte kinase assay kit (Invitrogen, PV3191). The kinases used in the test were purchased from Invitrogen.
(§2) The compounds obtained in Examples 1 to 237 were each prepared to 10 mM DMSO solution, and a solution containing 4% DMSO were prepared therefrom and diluted to a concentration of 1 μM to 0.0001 μM. […] The test was conducted in a 384 well polystyrene flat-bottomed plates. 5 μl of the diluted solution of each compound was added to each well, and 10 μl of a mixture of peptide substrate and kinase in a suitable concentration and 5 μl of 5˜300 μM ATP solution were successively added thereto and the plate was incubated in a stirrer at room temperature for 60 minutes. After 60 mins, 10 μl of coloring reagent was added to the resulting mixture to initiate a fluorescence reaction of peptide substrate and a terminating solution was added thereto for terminating the reaction. A fluorescence value of each well was determined with a fluorescence meter (Molecular Device) at 400 nm (excitation filter) and 520 nm (emission filter). […] The calculation of IC50 and the result analysis were carried out by using Microsoft Excel.
(§3) The inhibiting activities of the inventive compounds obtained in Examples 1 to 237 against BTK and JAK3 kinases were determined, respectively. The procedure of Test Example 2 was repeated except that BTK and JAK3 kinases (Invitrogen) were employed instead of using the EGFR kinase.

Test [1] relates to NCI-H1975 (EGFR L858R/T790M). Briefly: Inhibition test for growth of cancer cell expressing EGFR (MTS), NCI-H1975. In kind it is cell-based. Conditions: NCI-H1975 cells, 48 hours, MTS, read-out: GI50 NCI-H1975 EGFR L858R/T790M.
The target of the next test is T2, BTK (Homo sapiens, UniProt Q06187).
T2 construct: purchased Invitrogen
T2 sequence (Q06187 whole entry): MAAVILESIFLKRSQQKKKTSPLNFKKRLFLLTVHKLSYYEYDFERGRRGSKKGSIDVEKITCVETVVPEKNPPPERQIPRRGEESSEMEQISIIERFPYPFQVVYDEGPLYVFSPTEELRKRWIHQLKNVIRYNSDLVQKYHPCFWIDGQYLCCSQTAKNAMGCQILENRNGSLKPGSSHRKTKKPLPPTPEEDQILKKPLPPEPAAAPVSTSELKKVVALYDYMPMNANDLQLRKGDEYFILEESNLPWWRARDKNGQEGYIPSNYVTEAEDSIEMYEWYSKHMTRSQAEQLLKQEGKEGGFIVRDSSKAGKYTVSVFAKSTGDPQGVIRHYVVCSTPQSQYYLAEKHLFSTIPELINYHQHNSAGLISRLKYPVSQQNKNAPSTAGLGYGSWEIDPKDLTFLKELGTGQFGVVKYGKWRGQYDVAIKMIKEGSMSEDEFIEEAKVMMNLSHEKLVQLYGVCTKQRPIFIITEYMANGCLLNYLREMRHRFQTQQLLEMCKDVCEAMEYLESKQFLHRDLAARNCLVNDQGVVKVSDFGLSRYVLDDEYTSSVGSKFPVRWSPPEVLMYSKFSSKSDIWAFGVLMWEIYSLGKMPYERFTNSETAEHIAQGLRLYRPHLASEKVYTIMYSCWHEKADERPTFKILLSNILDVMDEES
In words: z-lyte kinase assay, BTK. The class given is biochemical. As for the experimental part: as §1, §2, §3

For test [2], the system named is HCC827 (EGFR DelE746_A750). Briefly: Inhibition test for growth of cancer cell expressing EGFR (SRB), HCC827.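 Also: cells in 96-well plates exposed to tenfold serial dilutions from 100 µM, fixed with trichloroacetic acid, SRB-stained, absorbance read at 540 nm, DMSO under 1%.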 The class given is cell-based. As to conditions: HCC827 cells, 72 hours, SRB, read-out: GI50 HCC827 EGFR DelE746_A750.
Method: A431 cell line was incubated in a high-glucose DMEM (Dulbecco's Modified Eagle's Medium) supplemented with 10% fetal bovine serum (FBS) and 1% penicillin/streptomycin (Gibco BRL), and HCC827 and NCI-H1975 cell lines were incubated in an RPMI medium supplemented with 10% FBS, 1% penicillin/streptomycin and 1% sodium pyruvate.
The cancer cell lines stored in a liquid nitrogen tank were each quickly thawed at 37° C., and centrifuged to remove the medium. The resulting cell pellet was mixed with a culture medium, incubated in a culture flask at 37° C. under 5% CO2 for 2 to 3 days, and the medium was removed. The remaining cells were washed with DPBS (Dulbecco's Phosphate Buffered Saline) and separated from the flask by using Tripsin-EDTA. […] 100 μl of the diluted cell solution was added to each well of a 96-well plate, and incubated at 37° C. under 5% CO2 for 1 day.
In case that the test compound was not soluble in DMSO, 1% HCl was added thereto and treated in a 40° C. water bath for 30 mins until a complete dissolution was attained. The DMSO solution containing test compound was diluted with a culture medium to a final concentration of 100 μM, and then diluted 10 times serially to 10^−6 μM (a final concentration of DMSO was less than 1%).
The medium was removed from each well of the 96-well plate. And then, 100 μl of a test compound solution was added to each well holding the cultured cells, and the plate was incubated at 37° C. under 5% CO2 for 72 hours (except that NCI-H1975 cells were incubated for 48 hours). After removing the medium from the plate, 50 μA of 10% trichloroacetic acid was added to each well, and the plate was kept at 4° C. for 1 hour to fix the cells to the bottom of the plate. The added 10% trichloroacetic acid solution was removed from each well, the plate was dried, 100 μA of an SRB (Sulforhodamine-B) dye solution at a concentration of 0.4% dissolved in 1% acetic acid was added thereto, and the resulting mixture was reacted for 10 mins at room temperature. After removing the dye solution, the plate was washed with water, and well dried. When the dye solution was not effectively removed by water, 1% acetic acid was used. 150 μA of 10 mM trisma base was added to each well, and the absorbance at 540 nm wavelength was determined with a microplate reader.

Like-named read-outs stand apart in the source and are kept apart here.

For orientation: IC50 means the concentration that inhibits the measured activity by half. Read a high IC50 as weaker potency. Regarding `C=CC(=O)Nc1cccc(Oc2nc(Nc3ccc(N4CCN(C)CC4)c(Cl)c3)nc3ccsc23)c1` [Example 7], the IC50 is 50 to 100 nM at JAK3 and at most 50 nM on BTK. Also, the GI50 in test [1] (Homo sapiens) is under 50 nM; in test [2] (Homo sapiens, HCC827, 72 h), under 50 nM.

Turning to `C=CC(=O)Nc1cccc(Oc2nc(Nc3ccc(N4CC5CC4CN5C)cc3)nc3ccsc23)c1` (stereo not shown) [Example 28], the IC50 at JAK3 and on BTK was at most 50 nM in each case. Also, the GI50 was under 50 nM in test [1] (Homo sapiens) and 50 to 100 nM in test [2] (Homo sapiens, HCC827, 72 h).

Take `C=CC(=O)Nc1cccc(Oc2nc(Nc3ccc(N4CC[C@@H](n5ccnc5)C4)cc3)nc3ccsc23)c1` [Example 36]: the IC50 against JAK3 and on BTK was 50 to 100 nM throughout. The GI50 in test [1] is under 50 nM; in test [2], 50 to 100 nM.

`C=CC(=O)Nc1cccc(Oc2nc(Nc3ccc(N4CCC(CO)CC4)cc3)nc3ccsc23)c1` [Example 40]: the IC50 on JAK3 and on BTK was 50 to 100 nM throughout. For the same compound, the GI50 in test [1] (Homo sapiens) is 50 to 100 nM; in test [2] (Homo sapiens, HCC827, 72 h) it was under 50 nM.

On to `C=CC(=O)Nc1cccc(Oc2nc(Nc3ccc(N4CCC(CN(C)C)CC4)cc3)nc3ccsc23)c1` [Example 41], for which the IC50 on JAK3 and against BTK was 50 to 100 nM in each case. The GI50 in test [1] (Homo sapiens) was under 50 nM; in test [2] (Homo sapiens, HCC827, 72 h), under 50 nM.

For the compound `C=CC(=O)Nc1cccc(Oc2nc(Nc3ccc(N4CCC(N5CCCC5)CC4)cc3)nc3ccsc23)c1` [Example 47], the IC50 at JAK3 and against BTK was 50 to 100 nM in each case. Moreover, the GI50 in test [1] (Homo sapiens) was under 50 nM; in test [2] (Homo sapiens, HCC827, 72 h), under 50 nM.

On to `C=CC(=O)Nc1cccc(Oc2nc(Nc3ccc(C4CCCN(C)C4)cc3)nc3ccsc23)c1` (stereo not shown) [Example 55], for which the IC50 against JAK3 was at most 50 nM; against BTK it was 50 to 100 nM. For the same compound, the GI50 in test [1] (Homo sapiens) was under 50 nM; in test [2] (Homo sapiens, HCC827, 72 h) it was under 50 nM.

With `C=CC(=O)Nc1cccc(Oc2nc(Nc3ccc(NCCN(C)C)cc3)nc3ccsc23)c1` [Example 57], the 50% inhibitory concentration (IC50) at JAK3 was 50 to 100 nM; on BTK, at most 50 nM. The GI50 in test [1] (Homo sapiens) was 100 to 1000 nM; in test [2] (Homo sapiens, HCC827, 72 h), under 50 nM.

Take `C=CC(=O)Nc1cccc(Oc2nc(Nc3ccc(NC4CCN(C)CC4)cc3)nc3ccsc23)c1` [Example 59]: the IC50 on JAK3 was 50 to 100 nM; on BTK, at most 50 nM. Besides, the GI50 in test [1] (Homo sapiens) is 100 to 1000 nM; in test [2] (Homo sapiens, HCC827, 72 h) it was under 50 nM.

On to `C=CC(=O)Nc1cccc(Oc2nc(Nc3ccc(S(N)(=O)=O)cc3)nc3ccsc23)c1` [Example 70], for which the IC50 against JAK3 and against BTK was at most 50 nM in each case.

Take `C=CC(=O)Nc1cccc(Oc2nc(Nc3ccc(S(=O)(=O)NCCN(C)C)cc3)nc3ccsc23)c1` [Example 72]: the IC50 against JAK3 and at BTK was at most 50 nM throughout. For the same compound, the GI50 is under 50 nM in test [1] (Homo sapiens) and under 50 nM in test [2] (Homo sapiens, HCC827, 72 h).

As for `C=CC(=O)Nc1cccc(Oc2nc(Nc3ccc(S(=O)(=O)NC4CCN(C)CC4)cc3)nc3ccsc23)c1` [Example 73], the IC50 against JAK3 was 50 to 100 nM; at BTK, at most 50 nM.

Regarding `C=CC(=O)Nc1cccc(Oc2nc(Nc3ccc(S(=O)(=O)NC4CCN(C(C)C)CC4)cc3)nc3ccsc23)c1` [Example 74], the IC50 is 50 to 100 nM at JAK3 and at most 50 nM on BTK.

For `C=CC(=O)Nc1cccc(Oc2nc(Nc3ccc(C(=O)NCCN(C)C)cc3)nc3ccsc23)c1` [Example 79], the IC50 against JAK3 and against BTK was at most 50 nM throughout. Besides, the GI50 in test [1] (Homo sapiens) was 100 to 1000 nM; in test [2] (Homo sapiens, HCC827, 72 h), under 50 nM.

With `C=CC(=O)Nc1cccc(Oc2nc(Nc3ccc(C(=O)N4CCC(NC)C4)cc3)nc3ccsc23)c1` (stereo not shown) [Example 85], the half-maximal inhibitory concentration (IC50) at JAK3 and at BTK was at most 50 nM each time.

With `C=CC(=O)Nc1cccc(Oc2nc(Nc3ccc(C(=O)N4CCOCC4)cc3)nc3ccsc23)c1` [Example 88], the half-inhibitory concentration (IC50) against JAK3 and on BTK was 50 to 100 nM each time.

For `C=CC(=O)Nc1cccc(Oc2nc(Nc3ccc(C(=O)N4CCN(C)CC4)cc3)nc3ccsc23)c1` [Example 89], the IC50 against JAK3 was 50 to 100 nM; at BTK, at most 50 nM.

`C=CC(=O)Nc1cccc(Oc2nc(Nc3ccc(C(=O)N4CCN(C5CCN(C)CC5)CC4)cc3)nc3ccsc23)c1` [Example 91]: the IC50 is 50 to 100 nM on JAK3 and at most 50 nM on BTK.

Regarding `C=CC(=O)Nc1cccc(Oc2nc(Nc3ccc(CS(C)(=O)=O)cc3)nc3ccsc23)c1` [Example 95], the IC50 against JAK3 and against BTK was 50 to 100 nM in each case. The GI50 in test [1] (Homo sapiens) is under 50 nM; in test [2] (Homo sapiens, HCC827, 72 h), under 50 nM.

For `C=CC(=O)Nc1cccc(Oc2nc(Nc3ccc(CC(=O)NC4CCN(C)CC4)cc3)nc3ccsc23)c1` [Example 103], the IC50 against JAK3 and against BTK was at most 50 nM throughout. Moreover, the GI50 in test [1] (Homo sapiens) is under 50 nM; in test [2] (Homo sapiens, HCC827, 72 h) it was 100 to 1000 nM.

As for `C=CC(=O)Nc1cccc(Oc2nc(Nc3ccc(C4=NCCCN4)cc3)nc3ccsc23)c1` [Example 104], the IC50 against JAK3 and on BTK was at most 50 nM throughout.

Take `C=CC(=O)Nc1cccc(Oc2nc(Nc3ccc(C4C(=O)N(C)CCN4C)cc3)nc3ccsc23)c1` (stereo not shown) [Example 105]: the figures for the IC50 on JAK3 and against BTK were at most 50 nM and 50 to 100 nM, respectively.

`C=CC(=O)Nc1cccc(Oc2nc(Nc3ccc(C4CCN(C)CC4)c(F)c3)nc3ccsc23)c1` [Example 127]: the IC50 at JAK3 and against BTK was 50 to 100 nM throughout. In addition, the GI50 is under 50 nM in test [1] (Homo sapiens) and under 50 nM in test [2] (Homo sapiens, HCC827, 72 h).

Take `C=CC(=O)Nc1cccc(Oc2nc(Nc3ccc(NC4CCN(C)CC4)c(Cl)c3)nc3ccsc23)c1` [Example 141]: the IC50 on JAK3 was 50 to 100 nM; at BTK it was at most 50 nM.

As to `C=CC(=O)Nc1cccc(Oc2nc(Nc3ccc(C(=O)NC4CCN(C)CC4)c(C)c3)nc3ccsc23)c1` [Example 145], the IC50 against JAK3 and on BTK was at most 50 nM in each case.

Consider `C=CC(=O)Nc1cccc(Oc2nc(Nc3ccc(N4CCN(C(C)C)CC4)nc3)nc3ccsc23)c1` [Example 146], for which the IC50 at JAK3 and against BTK was 50 to 100 nM throughout.

Turning to `C=CC(=O)Nc1cccc(Oc2nc(Nc3ccc(N4CCC(N5CCCC5)CC4)nc3)nc3ccsc23)c1` [Example 151], the half-maximal inhibitory concentration (IC50) against JAK3 and against BTK was 50 to 100 nM each time.

Take `C=CC(=O)Nc1cccc(Oc2nc(Nc3ccc(N4CCC(N5CCCCC5)CC4)nc3)nc3ccsc23)c1` [Example 152]: the IC50 at JAK3 was 50 to 100 nM; on BTK, at most 50 nM.

As for `C=CC(=O)Nc1cccc(Oc2nc(Nc3ccc(CN4CCC(N(C)C)C4)cc3)nc3ccsc23)c1` (stereo not shown) [Example 177], the IC50 at JAK3 and on BTK was at most 50 nM in each case.

Consider `C=CC(=O)Nc1cccc(Oc2nc(Nc3ccc(CN4CCC(O)CC4)cc3)nc3ccsc23)c1` [Example 179], for which the IC50 on JAK3 and at BTK was at most 50 nM throughout.

Values taken from patent USRE46511E1, “Fused pyrimidine derivatives for inhibition of tyrosine kinase activity” (HANMI SCIENCE CO., LTD., priority 2010, dated 2017).
